For experiment [1], the system named is Cryptococcus neoformans. Description: Antifungal activity against Cryptococcus neoformans ATCC 208821 assessed as fungal growth inhibition incubated for 24 hrs by CLSI protocol based broth microdilution method. Type of experiment: functional. A general note: Dilution methods test growth across graded concentrations, often in twofold steps.
Experiment [2] deals with Aspergillus flavus. Nature of the experiment: Antifungal activity against Aspergillus flavus ATCC 16870 assessed as fungal growth inhibition incubated for 24 hrs by CLSI protocol based broth microdilution method. Type of experiment: functional.
The next experiment has as its system Candida tropicalis. Description: Inhibition of Candida tropicalis ATCC 750 chitin synthase using UDP-GlcNAc as substrate at 300 ug/ml incubated for 1 hrs by absorbance based assay relative to control. Conditions: dose 300.0 µg/ml.
Experiment [3] concerns Aspergillus fumigatus. Description: Antifungal activity against Aspergillus fumigatus GIMCC 3.19 assessed as fungal growth inhibition incubated for 24 hrs by CLSI protocol based broth microdilution method. Type of experiment: functional.
Experiment [4] has as its system Candida albicans. Description: Antifungal activity against Candida albicans ATCC 76615 assessed as fungal growth inhibition incubated for 24 hrs by CLSI protocol based broth microdilution method. Type of experiment: functional.
In experiment [5] the test system is Candida albicans. Description: Synergistic antifungal activity against Candida albicans ATCC 76615 assessed as fractional inhibitory concentration index incubated for 24 hrs in the presence of fluconazole by broth dilution based checkerboard method. Type of experiment: functional.
Experiment [6] deals with Candida albicans. Description: Synergistic antifungal activity against Candida albicans ATCC 76615 assessed as fungal growth inhibition incubated for 24 hrs in the presence of fluconazole by broth dilution based checkerboard method. Type of experiment: functional.
For experiment [7], the system named is Aspergillus flavus. Description: Synergistic antifungal activity against Aspergillus flavus ATCC 16870 assessed as fungal growth inhibition incubated for 24 hrs in the presence of fluconazole by broth dilution based checkerboard method. Type of experiment: functional.
The test system of experiment [8] is Aspergillus fumigatus. Nature of the experiment: Synergistic antifungal activity against Aspergillus fumigatus GIMCC 3.19 assessed as fungal growth inhibition incubated for 24 hrs in the presence of fluconazole by broth dilution based checkerboard method. Type of experiment: functional.
Experiment [9] concerns Aspergillus flavus. Description: Synergistic antifungal activity against Aspergillus flavus ATCC 16870 assessed as fractional inhibitory concentration index incubated for 24 hrs in the presence of fluconazole by broth dilution based checkerboard method. Type of experiment: functional.
Experiment [10] deals with Aspergillus fumigatus. Description: Synergistic antifungal activity against Aspergillus fumigatus GIMCC 3.19 assessed as fractional inhibitory concentration index incubated for 24 hrs in the presence of fluconazole by broth dilution based checkerboard method. Type of experiment: functional.
Experiment [11] deals with Cryptococcus neoformans. Nature of the experiment: Synergistic antifungal activity against Cryptococcus neoformans ATCC 208821 assessed as fractional inhibitory concentration index incubated for 24 hrs in the presence of fluconazole by broth dilution based checkerboard method. Type of experiment: functional.
Experiment [12] relates to Cryptococcus neoformans. Description: Synergistic antifungal activity against Cryptococcus neoformans ATCC 208821 assessed as fungal growth inhibition incubated for 24 hrs in the presence of fluconazole by broth dilution based checkerboard method. Type of experiment: functional.
A short description of experiment [13]: Inhibition of Candida tropicalis ATCC 750 chitin synthase using UDP-GlcNAc as substrate incubated for 1 hrs by absorbance based assay.

In brackets after ≈: the same amount, converted by molar mass. Where only a bound is given, the exact number is not on record here.

A word on the MIC: it is the least concentration at which growth counts as inhibited. What is called inhibition is how much of the control response was suppressed. A lower inhibition goes with a weak effect. For the compound `COc1ccc2c(c1)C1(CCN(C(=O)CC(=O)Nc3ccccc3)CC1)OC(=O)N2`, the MIC in the experiment with Cryptococcus neoformans [1] was 256 µg/mL (≈ 625 µM); in the experiment on Aspergillus flavus [2] it was 256 µg/mL (≈ 625 µM); in the experiment on Aspergillus fumigatus [3] it was above 512 µg/mL; in the experiment with Candida albicans [4], 512 µg/mL (≈ 1250 µM). In the experiment with Candida tropicalis, this compound had an inhibition of 16%.
For `COc1ccc2c(c1)C1(CCN(C(=O)/C=C/C(=O)Nc3ccccc3Cl)CC1)OC(=O)N2`, the MIC with Cryptococcus neoformans [1] came out at 32 µg/mL (≈ 70.2 µM); in the experiment with Aspergillus flavus [2], 32 µg/mL (≈ 70.2 µM); with Candida albicans [6] it was 16 µg/mL; in the experiment on Aspergillus flavus [7], 13.3 µg/mL; in the experiment with Aspergillus fumigatus [8], 64 µg/mL; in the experiment with Aspergillus fumigatus [3], 32 µg/mL (≈ 70.2 µM). Besides, the MIC with Candida albicans [4] turned out to be 16 µg/mL (≈ 35.1 µM); in the experiment with Cryptococcus neoformans [12], 16 µg/mL. Besides, the “fractional inhibitory concentration index (FICI)” value with Candida albicans [5] was found to be 1.125; in the experiment on Aspergillus flavus [9] it was 1.42; with Aspergillus fumigatus [10], 2; in the experiment with Cryptococcus neoformans [11] it was 0.625. The same compound displayed an inhibition in the experiment on Candida tropicalis of 36%.
In the case of `COc1ccc2c(c1)C1(CCN(C(=O)/C=C/C(=O)Nc3ccc([N+](=O)[O-])cc3)CC1)OC(=O)N2`, the MIC in the experiment with Cryptococcus neoformans [1] was above 512 µg/mL; in the experiment with Aspergillus flavus [2], above 512 µg/mL; with Aspergillus fumigatus [3], above 512 µg/mL; in the experiment on Candida albicans [4], 512 µg/mL (≈ 1100 µM). This compound registered an inhibition in the experiment with Candida tropicalis of 13%.
For orientation: IC50 means the concentration needed to halve the response being measured. The low end stands for higher potency, the high end for lower potency. Turning to `COc1ccc2c(c1)C1(CCN(C(=O)/C=C/C(=O)Nc3ccc(C)cc3)CC1)OC(=O)N2`, the MIC in the experiment on Cryptococcus neoformans [1] turned out to be 256 µg/mL (≈ 588 µM); with Aspergillus flavus [2], 256 µg/mL (≈ 588 µM); in the experiment with Aspergillus fumigatus [3], 256 µg/mL (≈ 588 µM); in the experiment on Candida albicans [4], 128 µg/mL (≈ 294 µM). Also, the IC50 in experiment [13] came to 370 µM. The compound further gave an inhibition with Candida tropicalis of 65%.
Consider `COc1ccc2c(c1)C1(CCN(C(=O)/C=C/C(=O)Nc3ccc(Cl)cc3)CC1)OC(=O)N2`, for which the MIC came out at 512 µg/mL (≈ 1120 µM) with Cryptococcus neoformans [1], 256 µg/mL (≈ 562 µM) in the experiment on Aspergillus flavus [2], 128 µg/mL (≈ 281 µM) in the experiment on Aspergillus fumigatus [3] and 512 µg/mL (≈ 1120 µM) in the experiment on Candida albicans [4]. The compound also showed an inhibition in the experiment on Candida tropicalis of 51%.
Turning to `COc1ccc2c(c1)C1(CCN(C(=O)C(O)C(O)C(=O)Nc3ccccc3)CC1)OC(=O)N2` (centres undefined), the MIC with Cryptococcus neoformans [1] is above 512 µg/mL; in the experiment with Aspergillus flavus [2], 512 µg/mL (≈ 1120 µM); in the experiment with Aspergillus fumigatus [3], 512 µg/mL (≈ 1120 µM); in the experiment on Candida albicans [4], 512 µg/mL (≈ 1120 µM). The same compound showed an inhibition with Candida tropicalis of 41%.
In the case of `COc1ccc2c(c1)C1(CCN(C(=O)/C=C/C(=O)Nc3cccc(C)c3)CC1)OC(=O)N2`, the MIC with Cryptococcus neoformans [1] is above 512 µg/mL; in the experiment with Aspergillus flavus [2], above 512 µg/mL; in the experiment with Aspergillus fumigatus [3] it was above 512 µg/mL; in the experiment on Candida albicans [4], 256 µg/mL (≈ 588 µM). In the experiment with Candida tropicalis, this compound registered an inhibition of 42%.
In the case of `COc1ccc2c(c1)C1(CCN(C(=O)CCC(=O)Nc3ccccc3)CC1)OC(=O)N2`, the MIC in the experiment on Cryptococcus neoformans [1] is above 512 µg/mL; with Aspergillus flavus [2] it was 256 µg/mL (≈ 605 µM); with Aspergillus fumigatus [3], above 512 µg/mL; with Candida albicans [4], above 512 µg/mL. In the experiment with Candida tropicalis, this compound returned an inhibition of 6%.
In the case of `COc1ccc2c(c1)C1(CCN(C(=O)/C=C/C(=O)Nc3ccc(C(F)(F)F)cc3)CC1)OC(=O)N2`, the MIC with Cryptococcus neoformans [1] is 256 µg/mL (≈ 523 µM); with Aspergillus flavus [2], 128 µg/mL (≈ 262 µM); with Aspergillus fumigatus [3] it was above 512 µg/mL; in the experiment on Candida albicans [4] it was 512 µg/mL (≈ 1050 µM). The inhibition in the experiment with Candida tropicalis was found to be 15%.
The like results for `COc1ccc2c(c1)C1(CCN(C(=O)/C=C/C(=O)Nc3ccccc3Br)CC1)OC(=O)N2` were, in that order, 256 µg/mL (≈ 512 µM), 64 µg/mL (≈ 128 µM), 128 µg/mL (≈ 256 µM), 256 µg/mL (≈ 512 µM) and 40%.
Turning to `COc1cccc(NC(=O)/C=C/C(=O)N2CCC3(CC2)OC(=O)Nc2ccc(OC)cc23)c1`, the MIC in the experiment with Cryptococcus neoformans [1] amounted to 64 µg/mL (≈ 142 µM); in the experiment with Aspergillus flavus [2] it was 128 µg/mL (≈ 284 µM); in the experiment on Aspergillus fumigatus [3], 128 µg/mL (≈ 284 µM); with Candida albicans [4] it was 256 µg/mL (≈ 567 µM). In the experiment with Candida tropicalis, this compound had an inhibition of 37%.
Consider `COc1ccc2c(c1)C1(CCN(C(=O)/C=C/C(=O)Nc3cccc([N+](=O)[O-])c3)CC1)OC(=O)N2`, for which the MIC in the experiment with Cryptococcus neoformans [1] turned out to be 256 µg/mL (≈ 549 µM); with Aspergillus flavus [2], 256 µg/mL (≈ 549 µM); in the experiment on Aspergillus fumigatus [3], 107 µg/mL (≈ 229 µM); with Candida albicans [4] it was 128 µg/mL (≈ 274 µM). In the experiment with Candida tropicalis, this compound showed an inhibition of 34%.
As to `COc1ccc2c(c1)C1(CCN(C(=O)CCC(=O)Nc3ccc(Br)cc3)CC1)OC(=O)N2`, the MIC in the experiment on Cryptococcus neoformans [1] is 256 µg/mL (≈ 510 µM); with Aspergillus flavus [2], 256 µg/mL (≈ 510 µM); in the experiment with Aspergillus fumigatus [3], 512 µg/mL (≈ 1020 µM); in the experiment on Candida albicans [4] it was 107 µg/mL (≈ 212 µM). For the same compound, the inhibition with Candida tropicalis stood at 23%.
`COc1ccc2c(c1)C1(CCN(C(=O)/C=C/C(=O)Nc3ccccc3[N+](=O)[O-])CC1)OC(=O)N2`: the MIC in the experiment on Cryptococcus neoformans [1] turned out to be 256 µg/mL (≈ 549 µM); in the experiment with Aspergillus flavus [2] it was 512 µg/mL (≈ 1100 µM); in the experiment on Aspergillus fumigatus [3] it was 256 µg/mL (≈ 549 µM); in the experiment on Candida albicans [4] it was 512 µg/mL (≈ 1100 µM). In addition, in the experiment on Candida tropicalis, the inhibition came out at 18%.

(Values after ChEMBL document CHEMBL5331050, “Spiro[benzoxazine-piperidin]-one derivatives as chitin synthase inhibitors and antifungal agents: Design, synthesis and biological evaluation” (Eur J Med Chem, 2022).)
